According to ChEMBL document CHEMBL1157290, “Bioactive isomalabaricane triterpenoids from Rhabdastrella globostellata that stabilize the binding of DNA polymerase beta to DNA” (2006):
Active and inactive are the calls of the source. The calls are words filed in the database; no cut-off is given here. *1 amine or outer side, *2 acyl side, *3 side chain or, on linkers, in order; H or OH if unused. Where a SMILES comes first, the peptide text is derived from it. Bridges are numbered along the chain shown (N, C = ends). Roman numbers before positions name the chains, in order. [ ]: non-standard residue; d: D form. Actinocin(1to9) = Cc1c2oc3c(C)ccc(C(=O)[*:2])c3nc-2c(C(=O)[*:1])c(N)c1=O; NMeV = CN[C@H](C(=O)O)C(C)C; Sar = CNCC(=O)O

How the values were obtained:
Rattus norvegicus = organism: Rattus norvegicus; experiment: Stabilization of rat DNA polymerase binding to DNA by gel mobility assay
A2780 = experiment: Cytotoxicity against human A2780 cells; format: functional

| Activity (Rattus norvegicus) | Compound | Activity (A2780) [µM] |
| --- | --- | --- |
| 8% | CC(C)=C/C=C/C(C)=C/C=C/C(C)=C1\C(=O)C[C@H]2[C@@]3(C)CC[C@@H](O)[C@](C)(CO)[C@@H]3CC[C@]12C [STELLETTIN J] | 1.2 |
| – | Cc1c2oc3c(C)ccc(C(=O)N[C@@H]4C(=O)N[C@H](C(C)C)C(=O)N5CCC[C@H]5C(=O)N(C)CC(=O)N(C)[C@@H](C(C)C)C(=O)O[C@@H]4C)c3nc-2c(C(=O)N[C@@H]2C(=O)N[C@H](C(C)C)C(=O)N3CCC[C@H]3C(=O)N(C)CC(=O)N(C)[C@@H](C(C)C)C(=O)O[C@@H]2C)c(N)c1=O [DACTINOMYCIN] (I: T[dV]P[Sar][NMeV] / II: T[dV]P[Sar][NMeV]; ester I:1-I:C, II:1-II:C; linker I:N-II:N via Actinocin(1to9)) | 0.0017 |
| 23% | CC(=O)OC[C@]1(C)[C@@H]2CC[C@]3(C)/C(=C(C)/C=C/C=C(\C)[C@H](CC=C(C)C)OC(C)=O)C(=O)C[C@H]3[C@@]2(C)CC[C@H]1OC(C)=O | 27 |
| inactive | CC(C)=C/C=C/C(C)=C/C=C/C(C)=C1\C(=O)C[C@H]2[C@@]3(C)CC[C@@H](O)[C@](C)(C(=O)O)[C@@H]3CC[C@]12C [STELLETTIN K] | 0.28 |
| 29% | CC(=O)O[C@@H]1CC[C@@]2(C)[C@@H](CC[C@]3(C)/C(=C(C)/C=C/C=C(\C)C(CC=C(C)C)O[C@@H]4OC[C@@H](O)[C@@H](O)[C@H]4O)C(=O)C[C@@H]23)C1(C)C (some centres undefined) [STELLIFERIN RIBOSIDE] | 7.3 |
